Data on 30 compounds can be found in patent US20240199623A1 (ILDONG PHARMACEUTICAL CO., LTD., priority 2020, published 2024).

A value given as a limit tells only on which side of the number the result lay.

human wild type-CFTR, sequence (P13569 whole entry): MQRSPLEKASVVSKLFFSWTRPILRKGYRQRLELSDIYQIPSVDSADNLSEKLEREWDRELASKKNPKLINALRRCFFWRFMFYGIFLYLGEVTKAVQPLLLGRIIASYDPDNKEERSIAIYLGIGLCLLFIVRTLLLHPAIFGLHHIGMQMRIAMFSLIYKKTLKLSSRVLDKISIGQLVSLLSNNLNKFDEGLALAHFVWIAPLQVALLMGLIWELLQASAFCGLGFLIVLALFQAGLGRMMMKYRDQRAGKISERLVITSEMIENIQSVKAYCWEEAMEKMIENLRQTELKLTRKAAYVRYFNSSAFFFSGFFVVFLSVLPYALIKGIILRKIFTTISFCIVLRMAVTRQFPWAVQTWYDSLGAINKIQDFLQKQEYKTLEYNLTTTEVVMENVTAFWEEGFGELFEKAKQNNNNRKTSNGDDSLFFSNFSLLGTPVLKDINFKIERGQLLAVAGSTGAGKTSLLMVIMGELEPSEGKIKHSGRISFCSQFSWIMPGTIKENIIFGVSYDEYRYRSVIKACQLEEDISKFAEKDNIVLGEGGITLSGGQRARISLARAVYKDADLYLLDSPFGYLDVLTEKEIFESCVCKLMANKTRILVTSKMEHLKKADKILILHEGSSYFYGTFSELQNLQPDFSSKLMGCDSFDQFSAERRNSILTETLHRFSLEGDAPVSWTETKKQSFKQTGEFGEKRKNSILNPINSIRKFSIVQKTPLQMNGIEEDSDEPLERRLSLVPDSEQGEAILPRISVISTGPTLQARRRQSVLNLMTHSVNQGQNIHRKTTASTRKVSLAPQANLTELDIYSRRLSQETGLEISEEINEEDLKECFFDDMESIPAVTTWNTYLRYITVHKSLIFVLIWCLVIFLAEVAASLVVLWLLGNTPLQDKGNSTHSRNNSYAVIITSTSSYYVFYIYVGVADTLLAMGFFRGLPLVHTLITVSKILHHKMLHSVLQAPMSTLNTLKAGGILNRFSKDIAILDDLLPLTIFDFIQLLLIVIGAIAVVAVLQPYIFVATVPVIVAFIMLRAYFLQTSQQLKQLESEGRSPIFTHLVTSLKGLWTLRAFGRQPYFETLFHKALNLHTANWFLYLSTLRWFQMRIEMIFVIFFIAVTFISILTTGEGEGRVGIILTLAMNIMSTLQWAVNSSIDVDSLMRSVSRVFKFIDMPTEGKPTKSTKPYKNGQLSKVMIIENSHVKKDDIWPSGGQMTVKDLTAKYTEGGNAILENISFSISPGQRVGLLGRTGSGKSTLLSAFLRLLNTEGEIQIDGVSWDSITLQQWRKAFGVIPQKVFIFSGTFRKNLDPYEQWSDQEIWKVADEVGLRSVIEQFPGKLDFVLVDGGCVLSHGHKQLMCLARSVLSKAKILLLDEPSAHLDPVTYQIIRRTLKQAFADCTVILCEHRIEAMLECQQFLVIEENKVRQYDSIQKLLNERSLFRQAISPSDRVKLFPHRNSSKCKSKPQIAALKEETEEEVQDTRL

This assay addresses human wild type-CFTR (Homo sapiens, UniProt P13569). Briefly: Cell-based YFP assay. More on the design: expressed in transfected cells; host or cells: CHO-K1 (Chinese hamster ovary). Particulars: CHO-K1 cells expressing human wild type-CFTR and YFP-H148Q/I152L; forskolin 20 μM = 100% activity; read-out: Cell-based YFP Assay (EC50) Concentration Range. The method, then:
Forskolin (Tocris cat. #1099), Dimethyl sulfoxide (Sigma cat. #D4540), FLUO star Omega microplate reader (BMG Labtech, Ortenberg, Germany), MARS Data Analysis Software (BMG Labtech), GraphPad Prism 5 (GraphPad Software, Inc.) Chinese hamster ovary (CHO-K1) cells expressing human wild type-CFTR and halide sensor YFP-H148Q/I152L were constructed and grown in Dulbecco's modified Eagle's medium (DMEM) supplemented with 10% FBS, 2 mM glutamine, 100 units/ml penicillin and 100 μg/ml streptomycin. Chinese hamster ovary (CHO-K1) cells expressing human wild type-CFTR and halide sensor YFP-H148Q/I152L were seeded in 96-well microplate with 2×10^4 cells/well and incubated in 37° C., 48 hours. Then, each well was washed 3 times with PBS and 100 μL PBS was added in each well. […] YFP fluorescence signal affected by I^− ion influx through CFTR channel was measured in 37° C., FLUO star Omega microplate reader according to the following steps: • i) basal 2 seconds; • ii) 140 mM I^− solution 100 μL addition to each well; • iii) YFP fluorescence signal measurement start after 6 seconds; and • iv) following 14 seconds signal detection in every 0.4 seconds periods. […] Experiments were performed in triplicates and the data was averaged. EC50 values were calculated with MARS Data Analysis Software (BMG Labtech) and GraphPad Prism 5.
Consider `COCCOCOC(=O)c1ccc(NC(=O)c2cc3nccc(-c4ccc(OC)c(OC)c4)n3n2)cc1` [Compound 329, (2-methoxyethoxy)methyl 4-(7-(3,4-dimethoxyphenyl)pyrazolo [1,5-a]pyrimidine-2-carboxamido)benzoate], for which the EC50 was less than 200 nM. Regarding `COc1ccc(-c2ccnc3cc(C(=O)N(C)c4ccc(C(=O)O)cc4)nn23)cc1OC` [Compound 234, 4-(7-(3,4-dimethoxyphenyl)-N-methylpyrazolo[1,5-a]pyrimidine-2-carboxamido)benzoic acid], the EC50 is not below 2000 nM. Take `CCCCCCCCCCOC(=O)[C@H]1CC[C@H](NC(=O)c2cc3nccc(-c4ccc(OC)c(OC)c4)n3n2)CC1` [Compound 333, decyl (1r,4r)-4-(7-(3,4-dimethoxyphenyl)pyrazolo [1,5-a]pyrimidine-2-carboxamido)cyclohexane-1-carboxylate]: the EC50 was not below 2000 nM. As for `COc1ccc(-c2ccnc3cc(C(=O)O)nn23)cc1OC` [Compound 5, 7-(3,4-dimethoxyphenyl)pyrazolo[1,5-a]pyrimidine-2-carboxylic acid], the figure is not below 2000 nM. With `COc1ccc(-c2ccnc3cc(C(=O)N4CCN(C(=O)c5cc(F)ccc5F)[C@@H](C)C4)nn23)cc1OC` [Compound 356], the EC50 was less than 200 nM.

Consider `COc1ccc(-c2ccnc3cc(C(=O)N4CCN(C(=O)c5cccc(Cl)c5)[C@@H](C)C4)nn23)cc1OC` [Compound 261, (S)-(4-(3-chlorobenzoyl)-3-methylpiperazin-1-yl) (7-(3,4-dimethoxyphenyl)pyrazolo[1,5-a]pyrimidin-2-yl)methanone], for which the EC50 is 200 to 2000 nM. As for `COc1ccc(-c2ccnc3cc(C(=O)NC4CCN(C(=O)CO)CC4)nn23)cc1OC` [Compound 91, 7-(3,4-dimethoxyphenyl)-N-(1-(2-hydroxyacetyl)piperidin-4-yl)pyrazolo[1,5-a]pyrimidine-2-carboxamide], the EC50 is not below 2000 nM. Regarding `COc1ccc(-c2ccnc3cc(C(=O)N4CC[C@@H](NC(=O)C5CCN(C)CC5)C4)nn23)cc1OC` [Compound 188, (R)-N-(1-(7-(3,4-dimethoxyphenyl)pyrazolo [1,5-a]pyrimidine-2-carbonyl)pyrrolidin-3-yl)-1-methylpiperidine-4-carboxamide], the EC50 was not below 2000 nM. On to `COc1ccc(-c2ccnc3cc(C(=O)Nc4ccc(C(=O)N5CCOCC5)c(OC)c4)nn23)cc1OC` [Compound 217, 7-(3,4-dimethoxyphenyl)-N-(3-methoxy-4-(morpholine-4-carbonyl)phenyl)pyrazolo [1,5-a] pyrimidine-2-carboxamide], for which the EC50 was not below 2000 nM.

Consider `COc1ccc(-c2ccnc3cc(C(=O)N4C[C@H](C)N[C@@H](C)C4)nn23)cc1OC` [Compound 359, (7-(3,4-dimethoxyphenyl)pyrazolo[1,5-a]pyrimidin-2-yl) ((3S,5S)-3,5-dimethylpiperazin-1-yl)methanone], for which the EC50 was in the range of 200 to 2000 nM. For the compound `COc1ccc(-c2ccnc3cc(C(=O)Nc4ccc(N5CCOCC5)cn4)nn23)cc1[N+](=O)[O-]` [Compound 294, 7-(4-methoxy-3-nitrophenyl)-N-(5-morpholinopyridin-2-yl) pyrazolo[1,5-a] pyrimidine-2-carboxamide], the EC50 was not below 2000 nM. With `Cc1cccc(-c2ccnc3cc(C(=O)Nc4ccc(N5CCOCC5)cn4)nn23)c1` [Compound 306, N-(5-morpholinopyridin-2-yl)-7-(m-tolyl)pyrazolo[1,5-a] pyrimidine-2-carboxamide], the EC50 was not below 2000 nM. As to `COc1ccc(-c2ccnc3cc(C(=O)Nc4ccc(OC(=O)CNC(=O)OC(C)(C)C)cc4)nn23)cc1OC` [Compound 227, 4-(7-(3,4-dimethoxyphenyl)pyrazolo[1,5-a]pyrimidine-2-carboxamido) phenyl(tert-butoxycarbonyl)glycinate], the EC50 is less than 200 nM. Turning to `COc1ccc(-c2ccnc3cc(C(=O)Nc4cccc(C(N)=O)c4)nn23)cc1OC` [Compound 54, N-(3-carbamoylphenyl)-7-(3,4-dimethoxyphenyl)pyrazolo [1,5-a]pyrimidine-2-carboxamide], the EC50 lay in the range of 200 to 2000 nM. Regarding `COc1ccc(-c2ccnc3cc(C(=O)N4CC(NC(=O)OC(C)(C)C)C4)nn23)cc1OC` [Compound 116, tert-butyl (1-(7-(3,4-dimethoxyphenyl)pyrazolo [1,5-a]pyrimidine-2-carbonyl)azetidin-3-yl) carbamate], the EC50 was 200 to 2000 nM. For `COc1ccc(-c2ccnc3cc(C(=O)N4CCN(C)CC4)nn23)cc1OC` [Compound 101, (7-(3,4-dimethoxyphenyl)pyrazolo[1,5-a]pyrimidin-2-yl)(4-methylpiperazin-1-yl)methanone], the EC50 is not below 2000 nM. As for `COc1ccc(-c2ccnc3cc(C(=O)N4CCN(C(=O)c5ccccc5F)[C@@H](C)C4)nn23)cc1OC` [Compound 368, (S)-(7-(3,4-dimethoxyphenyl)pyrazolo[1,5-a]pyrimidin-2-yl)(4-(2-fluorobenzoyl)-3-methylpiperazin-1-yl)methanone], the figure is less than 200 nM. As for `COc1ccc(-c2ccnc3cc(C(=O)NCc4ccc(N5CCN(C)CC5)cc4)nn23)cc1OC` [Compound 245, 7-(3,4-dimethoxyphenyl)-N-(4-(4-methylpiperazin-1-yl)benzyl)pyrazolo[1,5-a]pyrimidine-2-carboxamide], the figure is not below 2000 nM; as for `CCOc1ccc(NC(=O)c2cc3nccc(-c4ccc(OC)cc4)n3n2)cc1` [Compound 13, N-(4-ethoxyphenyl)-7-(4-methoxyphenyl)pyrazolo [1,5-a]pyrimidine-2-carboxamide], 200 to 2000 nM; as for `COc1ccc(-c2ccnc3cc(C(=O)Nc4ccc(C(=O)NCCCN5CCCC5)cc4)nn23)cc1OC` [Compound 224, 7-(3,4-dimethoxyphenyl)-N-(4-((3-(pyrrolidin-1-yl)propyl)carbamoyl)phenyl)pyrazolo[1,5-a]pyrimidine-2-carboxamide], not below 2000 nM. On to `COc1ccc(-c2ccnc3cc(C(=O)N4CCCc5cc(C(=O)N6CCOCC6)ccc54)nn23)cc1OC` [Compound 236, (7-(3,4-dimethoxyphenyl)pyrazolo[1,5-a]pyrimidin-2-yl)(6-(morpholine-4-carbonyl)-3,4-dihydroquinolin-1(2H)-yl)methanone], for which the EC50 was not below 2000 nM. As for `COc1ccc(-c2ccnc3cc(C(=O)N(C)c4ccc(C(=O)N5CCOCC5)cc4)nn23)cc1OC` [Compound 249, 7-(3,4-dimethoxyphenyl)-N-methyl-N-(4-(morpholine-4-carbonyl)phenyl)pyrazolo[1,5-a]pyrimidine-2-carboxamide], the figure is not below 2000 nM; as for `COc1ccc(-c2ccnc3cc(C(=O)N4CCN(C(=O)c5ccncc5)[C@@H](C)C4)nn23)cc1OC` [Compound 357, (S)-(7-(3,4-dimethoxyphenyl)pyrazolo[1,5-a]pyrimidin-2-yl)(4-isonicotinoyl-3-methylpiperazin-1-yl)methanone], 200 to 2000 nM. Consider `COc1ccc(-c2ccnc3cc(C(=O)N4CC[C@@H](NC(=O)OC(C)(C)C)C4)nn23)cc1OC` [Compound 115, tert-butyl (R)-(1-(7-(3,4-dimethoxyphenyl)pyrazolo [1,5-a]pyrimidine-2-carbonyl)pyrrolidin-3-yl)carbamate], for which the EC50 lay within 200 to 2000 nM. For `COc1ccc(-c2ccnc3cc(C(=O)Nc4ccc(C(=O)OCCCN5CCN(C)CC5)cn4)nn23)cc1OC` [Compound 189, 3-(4-methylpiperazin-1-yl) propyl 6-(7-(3,4-dimethoxyphenyl)pyrazolo [1,5-a]pyrimidine-2-carboxamido)nicotinate] the value was less than 200 nM. As for `CCOc1ccc(NC(=O)c2cc3nccc(-c4ccc(OC)c([N+](=O)[O-])c4)n3n2)cc1` [Compound 295, N-(4-ethoxyphenyl)-7-(4-methoxy-3-nitrophenyl)pyrazolo [1,5-a]pyrimidine-2-carboxamide], the EC50 is not below 2000 nM. `COc1ccc(-c2ccnc3cc(C(=O)N4CCN(c5ccccc5)CC4)nn23)cc1OC` [Compound 152, (7-(3,4-dimethoxyphenyl)pyrazolo[1,5-a]pyrimidin-2-yl)(4-phenylpiperazin-1-yl)methanone]: the EC50 lay in the range of 200 to 2000 nM.

As for `CCOc1ccc(NC(=O)c2cc3nccc(-c4cccs4)n3n2)cc1` [Compound 303, N-(4-ethoxyphenyl)-7-(thiophen-2-yl) pyrazolo[1,5-a]pyrimidine-2-carboxamide], the EC50 was not below 2000 nM. Consider `CCOc1ccc(NC(=O)c2cc3nccc(-c4ccc(Cl)cc4F)n3n2)cc1` [Compound 304, 7-(4-chloro-2-fluorophenyl)-N-(4-ethoxyphenyl)pyrazolo [1,5-a]pyrimidine-2-carboxamide], for which the EC50 was not below 2000 nM. Regarding `COc1ccc(-c2ccnc3cc(C(=O)N[C@H]4CC[C@H](C(=O)NC5CCN(C6CCOCC6)CC5)CC4)nn23)cc1OC` [Compound 340, 7-(3,4-dimethoxyphenyl)-N-((1R,4R)-4-((1-(tetrahydro-2H-pyran-4-yl)piperidin-4-yl)carbamoyl)cyclohexyl) pyrazolo[1,5-a] pyrimidine-2-carboxamide], the EC50 was not below 2000 nM.
